From US20130095068A1, “AGENT FOR TREATING HCV INFECTION” (priority 2010, published 2013)
“Also recorded” adds a separate entry of the source.

How the values were obtained:
LucNeo#2 replicon cells = experiment: Cytotoxicity, Alamar Blue in LucNeo#2 replicon cells; assay type: cell-based; conditions: 72 hours, percentage of solvent-treated group
Protocol: (§1) LucNeo#2 replicon cells cultured to confluency were recovered by trypsin treatment, and were spread on a collagen-coated plate at a density of 20,000 cells/mL. The cell culture was conducted in an incubator at 37° C., 5% CO2, with 10% FCS/DMEM (containing mixed solution of penicillin-streptomycin, G418 and a non-essential amino acid). After 24 hours, the cells were rinsed and a compound of formula (I) was added as Test compound to final concentrations of 3.3 μM or 10 μM. At 72 hours after addition of the Test compound, the cells of one plate were rinsed, the cells were lysed with M-PER, and the intracellular luciferase activity was measured using a Promega kit. An Alamar Blue solution was also added to cells cultured under the same conditions, and the cytotoxicity was examined.
(§2) The intracellular luciferase activity and the Alamar Blue signal for cytotoxicity at 72 hours after Test compound addition were shown in Table 3 as a percentage with respect to the solvent-treated group.

HCV 1b genotype = experiment: Lowering effect on serum HCV RNA levels in HCV-infected human hepatocyte-transplanted mice (PXB mice); assay type: in vivo, Hepatitis C virus; conditions: oral; for Change in serum HCV RNA levels, average: day 14 versus day 0
Protocol: The lowering effect on serum HCV RNA levels was measured to determine the HCV replication inhibitory-effect of a compound of formula (I) of the invention were determined by measuring the serum HCV RNA levels.
Human hepatocyte-transplanted model mice (PXB mice) were prepared from uPA^+/+/SCID mice as host mice. The uPA^+/+/SCID mice are characterized by a combination of liver damage and serious immune deficiency complications. Commercially available frozen human hepatocytes (BD Biosciences, MA, USA) were grafted by infusion into the spleens of male or female uPA^+/+/SCID mice that had reached a postnatal age of 2 to 4 weeks, to create human hepatocyte-transplanted mice (PXB mice) having at least 70% of the mouse liver parenchymal cells replaced with human hepatocytes. […] HCV 1b genotype-infected patient serum (PhoenixBio) was injected through the orbital socket to a virus titer of 1×10^4 copies/mouse as measured by RT-PCR (Life Technologies Corporation, Carlsbad, USA), for the HCV infection. […] […] The number of mice per group was five. The solvent alone was used as a negative control. Administration was done once per day for 14 consecutive days. With the initial administration as day 0, blood was collected on day 0, 1, 3, 7, 10, 14, 17 and 21, and the serum HCV RNA levels were measured.
The percent change of blood HCV RNA levels in 14 days, which was 24 hours after final dosing (13 day), from those in day 0, which was predose, was calculated for each individual.

[1] = Cytotoxicity, CytoTox-1 Cell Proliferation Assay in ET replicon cells; assay type: cell-based; conditions: human, luc-ubi-neo/ET HCV genotype 1b subgenomic replicon cells; Test compound alone, 50% reduction in viable cells, maximum concentration 1.1 μM
Protocol: The HCV subgenome replicon cells used were luc-ubi-neo/ET replicon cells, having the genotype 1b HCV auto-replicating subgenomic replicon, a luciferase reporter, ubiquitin, a neomycin phosphotransferase coding sequence, and three mutations for cell culturing (Pietschmann, T. et al., J. Virol. 76:4008-4021, 2002). The ET replicon cells were cultured in DMEM containing 10% FBS, 1% penicillin/streptomycin, 1% glutamine, and 250 μg/mL G418 in an incubator at 37° C., 5% CO2. For culturing with a Test compound of formula (I), it was performed under the same conditions in DMEM containing 5% FBS, 1% penicillin/streptomycin and 1% glutamine. The ET replicon cells were cultured in two 96-well plates, at 5000 cell/well, separately. On the following day, the Test compound alone diluting to different concentrations with a maximum concentration of 1.1 μM, was added to one plate, while human recombinant Interferon-α-2b (rIFNα-2b) at a fixed concentration of 0.1 IU/mL was added to another plate with the Test compound, simultaneously. At 72 hours after addition, the luciferase activity indicating amplification of HCV mRNA was measured. The cytotoxicity was measured with a CytoTox-1 Cell Proliferation Assay (Promega Corporation). […]

[2] = tested on: HCV subgenomic replicon (LucNeo#2 replicon cells); experiment: Replicon assay, intracellular luciferase activity in LucNeo#2 replicon cells; assay type: cell-based, Hepatitis C virus; conditions: for Luciferase activity: 72 hours, percentage of solvent-treated group
Source text: The inhibitory-effect on HCV replication and the cytotoxicity of a compound of formula (I) of the invention were examined by a replicon assay method using different HCV subgenomic replicon cells from Example 1, specifically LucNeo#2 replicon cells. The LucNeo#2 replicon cells are reporter cells created with the same concept as the luc-ubi-neo/ET replicon cells used in Test Example 1, and are utilized for analysis of the RNA replication mechanism of HCV or anti-HCV drug evaluation, but the gene sequence differs from that of luc-ubi-neo/ET replicon cells (Biochem. Biophys. Res. Commun. 343 (2006) 879-884).
as §1, §2

[3] = tested on: genotype 1b HCV auto-replicating subgenomic replicon (luc-ubi-neo/ET replicon cells); experiment: Replicon assay, luciferase activity in luc-ubi-neo/ET HCV subgenome replicon cells; assay type: cell-based, Hepatitis C virus; conditions: for Luciferase activity: 72 hours, percentage of solvent alone
Source text: The inhibitory-effect on HCV replication and the cytotoxicity of a compound of formula (I) of the invention was examined by a replicon assay using HCV subgenome replicon cells.
The HCV subgenome replicon cells used were luc-ubi-neo/ET replicon cells, having the genotype 1b HCV auto-replicating subgenomic replicon, a luciferase reporter, ubiquitin, a neomycin phosphotransferase coding sequence, and three mutations for cell culturing (Pietschmann, T. et al., J. Virol. 76:4008-4021, 2002). The ET replicon cells were cultured in DMEM containing 10% FBS, 1% penicillin/streptomycin, 1% glutamine, and 250 μg/mL G418 in an incubator at 37° C., 5% CO2. For culturing with a Test compound of formula (I), it was performed under the same conditions in DMEM containing 5% FBS, 1% penicillin/streptomycin and 1% glutamine. The ET replicon cells were cultured in two 96-well plates, at 5000 cell/well, separately. On the following day, the Test compound alone diluting to different concentrations with a maximum concentration of 1.1 μM, was added to one plate, while human recombinant Interferon-α-2b (rIFNα-2b) at a fixed concentration of 0.1 IU/mL was added to another plate with the Test compound, simultaneously. At 72 hours after addition, the luciferase activity indicating amplification of HCV mRNA was measured. The cytotoxicity was measured with a CytoTox-1 Cell Proliferation Assay (Promega Corporation).
The luciferase activities, for the compound of formula (I) alone and for a combination of the compound of formula (I) and rIFNα-2b, were shown in Table 1 as percentage with respect to luciferase activity when using the solvent alone. The HCV replication inhibitory-activity was determined as the concentration which produced 50% inhibition of HCV replicon (EC50), and the cytotoxicity was determined as the concentration which produced 50% reduction in viable cells (IC50), while the selectivity was determined as the value of IC50/EC50; the results are summarized in Table 2.

COc1cc(/C=C2\CCCN([C@@H](C)c3ccc(F)cc3)C2=O)ccc1-n1cnc(C)c1 [Test compound A, (E)-1-[(1S)-1-(4-fluorophenyl)ethyl]-3-[3-methoxy-4-(4-methyl-1H-imidazol-1-yl)benzylidene]piperidin-2-one]
Cytotoxicity (Alamar Blue signal) (LucNeo#2 replicon cells; 3.3 μM): 100.00% | Cytotoxicity (Alamar Blue signal) (LucNeo#2 replicon cells; 10 μM): 101.50% | Change in serum HCV RNA levels, average (HCV 1b genotype; 10 mg/kg/day once per day for 14 days): 73.0% | Change in serum HCV RNA levels, average (HCV 1b genotype; 30 mg/kg/day once per day for 14 days): 50.4% | Change in serum HCV RNA levels, average (HCV 1b genotype; 100 mg/kg/day once per day for 14 days): 32.6% | Serum HCV RNA level (in words) (HCV 1b genotype; 14 days): dose-dependent reduction in serum HCV RNA level | IC50 at 72 h [1]: > 1100 nM | Luciferase activity ([2]; 3.3 μM): 116.60% | Luciferase activity ([2]; 10 μM): 42.80% | HCV replication inhibitory-activity (in words) ([2]; LucNeo#2 replicon cells, 3.3 and 10 μM): potent HCV replication inhibitory-activity by reducing the luciferase activity in a dose-dependent manner | EC50 ([3]; Hepatitis C virus, 72 h, read-out: HCV replication inhibitory activity EC50): 360 nM | Selectivity IC50/EC50 ([3]; Test compound alone): >3.06 | Luciferase activity ([3]; Test compound alone, 0.001 μM): 87% | Luciferase activity ([3]; Test compound alone, 0.003 μM): 89% | Luciferase activity ([3]; Test compound alone, 0.03 μM): 87% | Luciferase activity ([3]; Test compound alone, 0.11 μM): 89% | Luciferase activity ([3]; Test compound alone, 0.35 μM): 51% | Luciferase activity ([3]; Test compound alone, 1.1 μM): 21% | HCV replication inhibitory-activity (in words) ([3]; Test compound used alone): approximately dose-dependent HCV replication inhibitory-activity; also recorded: potent HCV replication inhibitory-activity at lower concentrations than the concentrations for the cytotoxicity | HCV replication inhibitory-activity (in words) ([3]; used in combination with rIFNα-2b): more potent reduction of HCV replication with dose-dependent manner; also recorded: even more potent HCV replication inhibitory-activity at lower concentrations than the concentrations for the cytotoxicity
